Reference: US20250263370A1 (Tay Therapeutics Limited, priority 2022, published 2025)
Where “and” joins values, the source holds several entries; their conditions need not be identical. Equal entries are not always repeated. Entries after “also recorded” stand apart in the source; their conditions may differ.

Test system: collagen-induced arthritis
Assay: Collagen-induced arthritis (CIA) model in rats: body weight, paw volume, clinical scores, clinical observations; for Average detailed clinical score, left hind limb: key of the grades not given here; for Average detailed clinical score, right hind limb: key of the grades not given here; for Detailed Clinical Scores, left forelimb: key of the grades not given here; for Detailed Clinical Scores, left hind limb: key of the grades not given here; for Detailed Clinical Scores, right forelimb: key of the grades not given here; for Detailed Clinical Scores, right hind limb: key of the grades not given here; for Detailed Clinical Scores, score: key of the grades not given here; for Mean overall clinical score ± SD: key of the grades not given here; for Overall clinical score: key of the grades not given here
Conditions: for Mean animal paw volume ± SD: group mean; for Overall clinical score: individual animals #1-8; for Detailed Clinical Scores, left forelimb / Detailed Clinical Scores, left hind limb / Detailed Clinical Scores, right forelimb / Detailed Clinical Scores, right hind limb / Detailed Clinical Scores, score: individual animals ID 1-8

CNC(=O)c1[nH]c(C(=O)NC2CCC2)cc1O[C@@H](C)c1ccccc1 (stereo in doubt) [Example 101, N^5-cyclobutyl-N^2-methyl-3-(1-phenylethoxy)-1H-pyrrole-2,5-dicarboxamide]
Animal paw volume Day 0 L (CIA rats, 30 mg/kg, Day 0, left paw, individual animals): 1.33 mL (2×) and 1.32 mL (3×) and 1.31 mL and 1.30 mL and 1.34 mL
Average animal paw volume percent change (CIA rats, 30 mg/kg, Day 0, right hind paw (R)): 0.00%
Animal paw volume Day 0 R (CIA rats, 30 mg/kg, Day 0, right paw, individual animals): 1.34 mL (2×) and 1.31 mL (2×) and 1.33 mL and 1.30 mL and 1.32 mL (2×)
Average animal paw volume percent change (CIA rats, 30 mg/kg, Day 6, left hind paw (L)): 0.76%
Animal paw volume Day 6 L (CIA rats, 30 mg/kg, Day 6, left paw, individual animals): 1.35 mL and 1.33 mL (3×) and 1.32 mL (3×) and 1.34 mL
Average animal paw volume percent change (CIA rats, 30 mg/kg, Day 6, right hind paw (R)): 0.75%
Animal paw volume Day 6 R (CIA rats, 30 mg/kg, Day 6, right paw, individual animals): 1.36 mL and 1.32 mL (2×) and 1.31 mL and 1.34 mL (2×) and 1.33 mL (2×)
Average animal paw volume percent change (CIA rats, 30 mg/kg, Day 12, left hind paw (L)): 1.33%
Animal paw volume Day 12 L (CIA rats, 30 mg/kg, Day 12, left paw, individual animals): 1.36 mL (2×) and 1.34 mL (2×) and 1.31 mL and 1.33 mL and 1.32 mL and 1.35 mL
Average animal paw volume percent change (CIA rats, 30 mg/kg, Day 12, right hind paw (R)): 2.87%
Animal paw volume Day 12 R (CIA rats, 30 mg/kg, Day 12, right paw, individual animals): 1.50 mL and 1.36 mL and 1.33 mL (4×) and 1.34 mL and 1.35 mL
Average animal paw volume percent change (CIA rats, 30 mg/kg, Day 13, left hind paw (L)): 2.76%
Animal paw volume Day 13 L (CIA rats, 30 mg/kg, Day 13, left paw, individual animals): 1.40 mL and 1.36 mL (2×) and 1.33 mL and 1.34 mL (2×) and 1.38 mL and 1.35 mL
Average animal paw volume percent change (CIA rats, 30 mg/kg, Day 13, right hind paw (R)): 4.15%
Animal paw volume Day 13 R (CIA rats, 30 mg/kg, Day 13, right paw, individual animals): 1.54 mL and 1.38 mL and 1.34 mL (2×) and 1.36 mL (3×) and 1.33 mL
Average animal paw volume percent change (CIA rats, 30 mg/kg, Day 14, left hind paw (L)): 2.39%
Animal paw volume Day 14 L (CIA rats, 30 mg/kg, Day 14, left paw, individual animals): 1.40 mL and 1.35 mL (2×) and 1.32 mL and 1.37 mL (2×) and 1.36 mL and 1.30 mL
Average animal paw volume percent change (CIA rats, 30 mg/kg, Day 14, right hind paw (R)): 3.83%
Animal paw volume Day 14 R (CIA rats, 30 mg/kg, Day 14, right paw, individual animals): 1.53 mL and 1.37 mL and 1.35 mL (2×) and 1.36 mL (3×) and 1.28 mL
Average animal paw volume percent change (CIA rats, 30 mg/kg, Day 15, left hind paw (L)): 10.45%
Animal paw volume Day 15 L (CIA rats, 30 mg/kg, Day 15, left paw, individual animals): 1.46 mL and 1.79 mL and 1.57 mL and 1.38 mL (2×) and 1.34 mL and 1.44 mL and 1.31 mL
Average animal paw volume percent change (CIA rats, 30 mg/kg, Day 15, right hind paw (R)): 12.13%
Animal paw volume Day 15 R (CIA rats, 30 mg/kg, Day 15, right paw, individual animals): 1.52 mL and 1.37 mL and 1.68 mL and 1.38 mL and 1.49 mL and 1.36 mL and 1.73 mL and 1.30 mL
Average animal paw volume percent change (CIA rats, 30 mg/kg, Day 18, left hind paw (L)): 29.38%
Animal paw volume Day 18 L (CIA rats, 30 mg/kg, Day 18, left paw, individual animals): 1.46 mL and 2.05 mL and 1.90 mL and 1.47 mL (2×) and 1.68 mL and 1.93 mL and 1.70 mL
Average animal paw volume percent change (CIA rats, 30 mg/kg, Day 18, right hind paw (R)): 23.54%
Animal paw volume Day 18 R (CIA rats, 30 mg/kg, Day 18, right paw, individual animals): 1.51 mL and 1.87 mL and 1.86 mL and 1.37 mL and 1.48 mL and 1.32 mL and 1.95 mL and 1.68 mL
Average animal paw volume percent change (CIA rats, 30 mg/kg, Day 19, left hind paw (L)): 33.52%
Animal paw volume Day 19 L (CIA rats, 30 mg/kg, Day 19, left paw, individual animals): 1.42 mL and 2.04 mL and 2.06 mL and 1.56 mL and 1.55 mL and 1.85 mL and 1.94 mL and 1.67 mL
Average animal paw volume percent change (CIA rats, 30 mg/kg, Day 19, right hind paw (R)): 32.36%
Animal paw volume Day 19 R (CIA rats, 30 mg/kg, Day 19, right paw, individual animals): 1.44 mL and 1.96 mL and 2.14 mL and 1.39 mL and 1.48 mL and 1.83 mL and 2.04 mL and 1.69 mL
Average animal paw volume percent change (CIA rats, 30 mg/kg, Day 21, left hind paw (L)): 37.92%
Animal paw volume Day 21 L (CIA rats, 30 mg/kg, Day 21, left paw, individual animals): 1.43 mL and 2.08 mL and 2.11 mL and 1.54 mL (2×) and 2.06 mL and 2.13 mL and 1.67 mL
Average animal paw volume percent change (CIA rats, 30 mg/kg, Day 21, right hind paw (R)): 36.08%
Animal paw volume Day 21 R (CIA rats, 30 mg/kg, Day 21, right paw, individual animals): 1.43 mL and 2.10 mL and 2.16 mL and 1.40 mL and 1.47 mL and 2.00 mL and 2.12 mL and 1.67 mL
overall effect on joint inflammation and clinical symptoms of CIA (CIA rats, 3, 10 and 30 mg/kg twice daily P.O. (groups 5-7)): ameliorated joint inflammation in a dose-dependent manner; also recorded: lower clinical scores; also recorded: dose-dependent effect in the amelioration of clinical symptoms associated with CIA; also recorded: function in a dose-dependent manner to limit and/or reduce the severity of CIA-related symptoms
Mean animal paw volume ± SD (Day 0, L paw, 3 mg/kg): 1.33 mL
Mean animal paw volume ± SD (Day 0, L paw, 10 mg/kg): 1.31 mL
Mean animal paw volume ± SD (Day 0, L paw, 30 mg/kg): 1.32 mL
Mean animal paw volume ± SD (Day 0, R paw, 3 mg/kg): 1.33 mL
Mean animal paw volume ± SD (Day 0, R paw, 10 mg/kg): 1.31 mL
Mean animal paw volume ± SD (Day 0, R paw, 30 mg/kg): 1.32 mL
Average detailed clinical score, left forelimb (Day 0, CIA rats, 3 mg/kg): 0.00
Average detailed clinical score, left hind limb (Day 0, CIA rats, 3 mg/kg): 0.00
Average detailed clinical score, right forelimb (Day 0, CIA rats, 3 mg/kg): 0.00
Average detailed clinical score, right hind limb (Day 0, CIA rats, 3 mg/kg): 0.00
Average detailed clinical score, score (Day 0, CIA rats, 3 mg/kg): 0.00
Mean overall clinical score ± SD (Day 0, CIA rats, 3 mg/kg): 0 ± 0
Overall clinical score (Day 0, CIA rats, 3 mg/kg): 0
Average detailed clinical score, left forelimb (Day 0, CIA rats, 10 mg/kg): 0.00
Average detailed clinical score, left hind limb (Day 0, CIA rats, 10 mg/kg): 0.00
Average detailed clinical score, right forelimb (Day 0, CIA rats, 10 mg/kg): 0.00
Average detailed clinical score, right hind limb (Day 0, CIA rats, 10 mg/kg): 0.00
Average detailed clinical score, score (Day 0, CIA rats, 10 mg/kg): 0.00
Mean overall clinical score ± SD (Day 0, CIA rats, 10 mg/kg): 0 ± 0
Overall clinical score (Day 0, CIA rats, 10 mg/kg): 0
Average detailed clinical score, left forelimb (Day 0, CIA rats, 30 mg/kg): 0.00
Average detailed clinical score, left hind limb (Day 0, CIA rats, 30 mg/kg): 0.00
Average detailed clinical score, right forelimb (Day 0, CIA rats, 30 mg/kg): 0.00
Average detailed clinical score, right hind limb (Day 0, CIA rats, 30 mg/kg): 0.00
Average detailed clinical score, score (Day 0, CIA rats, 30 mg/kg): 0.00
Mean overall clinical score ± SD (Day 0, CIA rats, 30 mg/kg): 0 ± 0
Mean animal paw volume ± SD (Day 6, L paw, 3 mg/kg): 1.34 mL
Mean animal paw volume ± SD (Day 6, L paw, 10 mg/kg): 1.32 mL
Mean animal paw volume ± SD (Day 6, L paw, 30 mg/kg): 1.33 mL
Mean animal paw volume ± SD (Day 6, R paw, 3 mg/kg): 1.35 mL
Mean animal paw volume ± SD (Day 6, R paw, 10 mg/kg): 1.32 mL
Mean animal paw volume ± SD (Day 6, R paw, 30 mg/kg): 1.33 mL
Average detailed clinical score, left forelimb (Day 6, CIA rats, 3 mg/kg): 0.00
Average detailed clinical score, left hind limb (Day 6, CIA rats, 3 mg/kg): 0.00
Average detailed clinical score, right forelimb (Day 6, CIA rats, 3 mg/kg): 0.00
Average detailed clinical score, right hind limb (Day 6, CIA rats, 3 mg/kg): 0.00
Average detailed clinical score, score (Day 6, CIA rats, 3 mg/kg): 0.00
Mean overall clinical score ± SD (Day 6, CIA rats, 3 mg/kg): 0 ± 0
Overall clinical score (Day 6, CIA rats, 3 mg/kg): 0
Average detailed clinical score, left forelimb (Day 6, CIA rats, 10 mg/kg): 0.00
Average detailed clinical score, left hind limb (Day 6, CIA rats, 10 mg/kg): 0.00
Average detailed clinical score, right forelimb (Day 6, CIA rats, 10 mg/kg): 0.00
Average detailed clinical score, right hind limb (Day 6, CIA rats, 10 mg/kg): 0.00
Average detailed clinical score, score (Day 6, CIA rats, 10 mg/kg): 0.00
Mean overall clinical score ± SD (Day 6, CIA rats, 10 mg/kg): 0 ± 0
Overall clinical score (Day 6, CIA rats, 10 mg/kg): 0
Average detailed clinical score, left forelimb (Day 6, CIA rats, 30 mg/kg): 0.00
Average detailed clinical score, left hind limb (Day 6, CIA rats, 30 mg/kg): 0.00
Average detailed clinical score, right forelimb (Day 6, CIA rats, 30 mg/kg): 0.00
Average detailed clinical score, right hind limb (Day 6, CIA rats, 30 mg/kg): 0.00
Average detailed clinical score, score (Day 6, CIA rats, 30 mg/kg): 0.00
Mean overall clinical score ± SD (Day 6, CIA rats, 30 mg/kg): 0 ± 0
Mean animal paw volume ± SD (Day 12, L paw, 3 mg/kg): 1.41 mL
Mean animal paw volume ± SD (Day 12, L paw, 10 mg/kg): 1.41 mL
Mean animal paw volume ± SD (Day 12, L paw, 30 mg/kg): 1.33 mL
Mean animal paw volume ± SD (Day 12, R paw, 3 mg/kg): 1.40 mL
Mean animal paw volume ± SD (Day 12, R paw, 10 mg/kg): 1.41 mL
Mean animal paw volume ± SD (Day 12, R paw, 30 mg/kg): 1.36 mL
Detailed Clinical Scores, left forelimb (Day 12, 3 mg/kg, CIA rats): 0
Detailed Clinical Scores, left hind limb (Day 12, 3 mg/kg, CIA rats): 0 (7×) and 1
Detailed Clinical Scores, right forelimb (Day 12, 3 mg/kg, CIA rats): 0 (6×) and 1 (2×)
Detailed Clinical Scores, right hind limb (Day 12, 3 mg/kg, CIA rats): 0
Detailed Clinical Scores, score (Day 12, 3 mg/kg, CIA rats): 0 (5×) and 1 (3×)
Detailed Clinical Scores, left forelimb (Day 12, 10 mg/kg, CIA rats): 0
Detailed Clinical Scores, left hind limb (Day 12, 10 mg/kg, CIA rats): 1 (2×) and 0 (6×)
Detailed Clinical Scores, right forelimb (Day 12, 10 mg/kg, CIA rats): 0
Detailed Clinical Scores, right hind limb (Day 12, 10 mg/kg, CIA rats): 0 (7×) and 2
Detailed Clinical Scores, score (Day 12, 10 mg/kg, CIA rats): 1 (2×) and 0 (5×) and 2
Detailed Clinical Scores, left forelimb (Day 12, 30 mg/kg, CIA rats): 0
Detailed Clinical Scores, left hind limb (Day 12, 30 mg/kg, CIA rats): 0
Detailed Clinical Scores, right forelimb (Day 12, 30 mg/kg, CIA rats): 0
Detailed Clinical Scores, right hind limb (Day 12, 30 mg/kg, CIA rats): 1 and 0 (7×)
Detailed Clinical Scores, score (Day 12, 30 mg/kg, CIA rats): 1 and 0 (7×)
Average detailed clinical score, left forelimb (Day 12, CIA rats, 3 mg/kg): 0.00
Average detailed clinical score, left hind limb (Day 12, CIA rats, 3 mg/kg): 0.13
Average detailed clinical score, right forelimb (Day 12, CIA rats, 3 mg/kg): 0.25
Average detailed clinical score, right hind limb (Day 12, CIA rats, 3 mg/kg): 0.00
Average detailed clinical score, score (Day 12, CIA rats, 3 mg/kg): 0.38
Mean overall clinical score ± SD (Day 12, CIA rats, 3 mg/kg): 0 ± 1
Overall clinical score (Day 12, CIA rats, 3 mg/kg): 0 (5×) and 1 (3×)
Average detailed clinical score, left forelimb (Day 12, CIA rats, 10 mg/kg): 0.00
Average detailed clinical score, left hind limb (Day 12, CIA rats, 10 mg/kg): 0.25
Average detailed clinical score, right forelimb (Day 12, CIA rats, 10 mg/kg): 0.00
